# According to US8680059B2, “Oligopeptide acetate and formulations thereof” (Biotempt B.V., priority 1998, dated 2014):
# Test system: RAW 264.7 murine macrophage cell line
# Test: Nitrite (NO) production in LPS-stimulated RAW 264.7 macrophages
# Assay type: cell-based
# Settings: co-stimulated with LPS 10 microg/ml, peptide even at 1 pg/ml, 24 hours
# Experimental: Cell culture. The RAW 264.7 murine macrophage cell line, obtained from American Type Culture Collection (Manassas, Va., USA), were cultured at 37° C. in 5% CO2 using DMEM containing 10% fetal calf serum (FCS), 50 U/ml penicillin, 50 μg/ml streptomycin, […] Na-pyruvate, 2 mM glutamine and 50 μM 2-mercaptoethanol (Bio Whittaker, Europe). The medium was changed every 2 days.
# Nitrite measurements. Nitrite production was measured in the RAW 264.7 macrophage supernatants. The cells (7.5×10^5/ml) were cultured in 48-well plates in […] of culture medium. The cells were stimulated with LPS (10 microg/ml) and/or peptide (1 pg/ml, 1 ng/ml, 1 μg/ml) for 24 hours, then the culture media were collected. Nitrite was measured by adding 100 microl of Griess reagent (Sigma) to 100 microl samples of culture medium. The OD540 was measured using a microplate reader, and the nitrite concentration was calculated by comparison with the OD540 produced using standard solutions of sodium nitrite in the culture medium.
substance,measurement,value
"AQGV [tetrapeptide derived from human chorionic gonadotropin, alanine replacement of LQGV]",NO production,inhibited the production of NO
